Structures can show the parent of a compound that is named as a salt.

Experimental findings from patent US20060014750A1, “Pharmaceutical compositions for the treatment of CNS and other disorders” (Pfizer Inc, priority 2001, published 2006) are described below.

Regarding `O=C(Oc1ccccc1)N1CCN2CCC1CC2`, the melting point came out at 254.8 °C. `O=C(Oc1ccc2cc(Br)ccc2c1)N1CCN2CCC1CC2` registered a melting point of 174.2 °C. `O=C(Nc1ccc(Br)cc1)N1CCN2CCC1CC2` (as salt: HCl) gave a melting point of 228 to 231 °C. Consider `S=C(Oc1ccccc1)N1CCN2CCC1CC2` (as salt: hydrochloride), for which the melting point worked out at 272.2 °C. Next, `O=C(OCc1ccccc1)N1CCN2CCC1CC2` (as salt: hydrochloride): 235.6 °C; `COC(=O)c1ccc(OC(=O)N2CCN3CCC2CC3)cc1` (as salt: hydrochloride): 237.4 °C; `COC(=O)N1CCN2CCC1CC2` (as salt: hydrochloride): 198.7 °C.

For the compound `CC(C)COC(=O)N1CCN2CCC1CC2` (as salt: hydrochloride), the melting point came out at 266.5 °C. The compound `CCCCCCCCOC(=O)N1CCN2CCC1CC2` (as salt: hydrochloride) registered a melting point of 217.5 °C. Turning to `CCOC(=O)N1CCN2CCC1CC2` (as salt: hydrochloride), the melting point was 207.7 °C. For the compound `CCCOC(=O)N1CCN2CCC1CC2` (as salt: hydrochloride), the melting point was determined as 242 °C.

For `N#Cc1ccc(OC(=O)N2CCN3CCC2CC3)cc1` (as salt: hydrochloride), the melting point was found to be 289.8 °C. Next, `O=C(Oc1ccc(OCc2ccccc2)cc1)N1CCN2CCC1CC2` (as salt: hydrochloride): 278.5 °C; `O=C(Oc1ccc(C2CCCCC2)cc1)N1CCN2CCC1CC2` (as salt: hydrochloride): 294.1 °C.

`CSc1ccc(OC(=O)N2CCN3CCC2CC3)cc1` (as salt: hydrochloride) returned a melting point of 235.2 °C. The value for `O=C(Oc1ccc(C2CCc3ccccc32)cc1)N1CCN2CCC1CC2` (stereo not shown) (as salt: hydrochloride) was 168.7 °C. Next, `O=C(Oc1ccc(I)cc1)N1CCN2CCC1CC2` (as salt: hydrochloride): 280.2 °C; `O=C(Oc1ccc(Cc2ccccc2)cc1)N1CCN2CCC1CC2` (as salt: hydrochloride): 221.8 °C.

Regarding `CC(C)(C)c1ccc(OC(=O)N2CCN3CCC2CC3)cc1` (as salt: hydrochloride), the melting point amounted to 289.7 °C.

Compound `COc1ccc(OC(=O)N2CCN3CCC2CC3)cc1` (as salt: hydrochloride) displayed a melting point of 269.7 °C. On to `O=C(Oc1ccc(-n2ccnc2)cc1)N1CCN2CCC1CC2` (as salt: hydrochloride), for which the melting point was greater than 300 °C.

Turning to `O=C(Oc1ccc(Oc2ccccc2)cc1)N1CCN2CCC1CC2` (as salt: hydrochloride), the melting point turned out to be 238 °C.

Take `O=C(Oc1ccc(C(F)(F)F)cc1)N1CCN2CCC1CC2` (as salt: hydrochloride): the melting point was determined as 260.7 °C. For the compound `O=C(Oc1ccccc1Br)N1CCN2CCC1CC2` (as salt: hydrochloride), the melting point was determined as 267.2 °C.

`O=C(Oc1ccccc1Cl)N1CCN2CCC1CC2` (as salt: hydrochloride) returned a melting point of 251.2 °C. `O=C(Oc1ccccc1I)N1CCN2CCC1CC2` (as salt: hydrochloride) gave a melting point of 254 °C. Next, `N#Cc1ccc(-c2ccc(OC(=O)N3CCN4CCC3CC4)cc2)cc1` (as salt: hydrochloride): greater than 300 °C. The compound `O=C(Oc1ccc(-c2ccc(Br)cc2)cc1)N1CCN2CCC1CC2` (as salt: hydrochloride) had a melting point greater than 300 °C. The compound `O=C(Oc1ccc(-n2cncn2)cc1)N1CCN2CCC1CC2` (as salt: hydrochloride) registered a melting point of 253.1 °C. Compound `O=C(Oc1ccc(F)cc1)N1CCN2CCC1CC2` (as salt: hydrochloride) displayed a melting point of 276.8 °C. Compound `CC(=O)N1CCN(c2ccc(OC(=O)N3CCN4CCC3CC4)cc2)CC1` (as salt: hydrochloride) displayed a melting point of 166.6 °C. In the case of `O=C(Oc1ccccc1C(F)(F)F)N1CCN2CCC1CC2` (as salt: hydrochloride), the melting point came to 228.7 °C. With `O=C(Oc1ccccc1-c1nc2ccccc2o1)N1CCN2CCC1CC2` (as salt: hydrochloride), the melting point came out at 259.9 °C. For `O=C(Oc1ccccc1-c1nc2ccccc2s1)N1CCN2CCC1CC2` (as salt: hydrochloride), the melting point came out at 247.6 °C. Regarding `O=C(Oc1cccc(F)c1)N1CCN2CCC1CC2` (as salt: hydrochloride), the melting point was determined as 228.2 °C. The value for `O=C(Oc1cccc(Br)c1)N1CCN2CCC1CC2` (as salt: hydrochloride) was 224.5 °C. The value for `COc1cccc(OC(=O)N2CCN3CCC2CC3)c1` (as salt: hydrochloride) was 204.3 °C; that for `Cc1cccc(OC(=O)N2CCN3CCC2CC3)c1` (as salt: hydrochloride) was 249.2 °C.

Turning to `O=C(Oc1ccc([N+](=O)[O-])cc1)N1CCN2CCC1CC2` (as salt: hydrochloride), the melting point is 267.5 °C. The value for `CC(C)(C)c1cccc(OC(=O)N2CCN3CCC2CC3)c1` (as salt: hydrochloride) was 283.4 °C.

In turn, `O=C(Oc1cccc(C(F)(F)F)c1)N1CCN2CCC1CC2` (as salt: hydrochloride) registered a melting point of 229.3 °C. `O=C(Oc1ccccc1Cc1ccccc1)N1CCN2CCC1CC2` (as salt: hydrochloride) yielded a melting point of 214 °C. Compound `O=C(Oc1cccc(I)c1)N1CCN2CCC1CC2` (as salt: hydrochloride) had a melting point of 243.8 °C. In turn, `O=C(c1ccccc1)c1cccc(OC(=O)N2CCN3CCC2CC3)c1` (as salt: hydrochloride) displayed a melting point of 241.7 °C. `O=C(Oc1cccc(Oc2ccccc2)c1)N1CCN2CCC1CC2` (as salt: hydrochloride) yielded a melting point of 204.8 °C. `O=C(Oc1cccc([N+](=O)[O-])c1)N1CCN2CCC1CC2` (as salt: hydrochloride): the melting point was found to be 205.1 °C. `Cc1cc(OC(=O)N2CCN3CCC2CC3)cc(C)c1Br` (as salt: hydrochloride): the melting point was 239.5 °C. Next, `O=C(Oc1ccccc1[N+](=O)[O-])N1CCN2CCC1CC2` (as salt: hydrochloride): 260.4 °C. `Cc1cc(OC(=O)N2CCN3CCC2CC3)ccc1Br` (as salt: hydrochloride): the melting point was 212.5 °C. Compound `O=C(Oc1ccc(Br)c(Cl)c1)N1CCN2CCC1CC2` (as salt: hydrochloride) gave a melting point of 234.7 °C. With `Cc1ccc(OC(=O)N2CCN3CCC2CC3)cc1C` (as salt: hydrochloride), the melting point is 246 °C. The compound `O=C(Oc1ccc(Cl)c(Cl)c1)N1CCN2CCC1CC2` (as salt: hydrochloride) displayed a melting point of 260.2 °C. Compound `O=C(Oc1cccc(-c2cccnc2)c1)N1CCN2CCC1CC2` (as salt: hydrochloride) came in with a melting point of 210.2 °C. For the compound `O=C(Oc1ccc2ccccc2c1)N1CCN2CCC1CC2` (as salt: hydrochloride), the melting point is 255.5 °C.

As to `O=C(Oc1ccc(Cl)cc1)N1CCN2CCC1CC2` (as salt: hydrochloride), the melting point turned out to be 257.5 °C.
